Values quoted from earlier work as cited in PMC13029847, “Decoding the Liver–Blood Partitioning of Neonicotinoid Insecticides: Evidence from Paired Human Liver and Blood Biomonitoring” (Toxics, 2026).
Converted amounts (≈) assume the structure as drawn.

Details: ref PubChem Open Chemistry Database

SMILES | Solubility
CCN(Cc1ccc(Cl)nc1)/C(=C/[N+](=O)[O-])NC [NIT, nitenpyram] | 840 mg/mL (≈ 3100 mM)
CN1COCN(Cc2cnc(Cl)s2)/C1=N\[N+](=O)[O-] [THIA, thiamethoxam] | 4.1 mg/mL (≈ 14.1 mM)
